Data on eight compounds can be found in patent US8258134B2, “Pyridazinone glucokinase activators” (Hoffmann-La Roche Inc., priority 2008, dated 2012).

The structures appear in SMILES notation.

In assay [1] the target is T1, Recombinant human liver GK1 (GST-GK) (Homo sapiens, UniProt P35557).
T1 construct: made in house; host or cells: E. coli
T1 sequence (P35557 1-466 isoform P35557-2): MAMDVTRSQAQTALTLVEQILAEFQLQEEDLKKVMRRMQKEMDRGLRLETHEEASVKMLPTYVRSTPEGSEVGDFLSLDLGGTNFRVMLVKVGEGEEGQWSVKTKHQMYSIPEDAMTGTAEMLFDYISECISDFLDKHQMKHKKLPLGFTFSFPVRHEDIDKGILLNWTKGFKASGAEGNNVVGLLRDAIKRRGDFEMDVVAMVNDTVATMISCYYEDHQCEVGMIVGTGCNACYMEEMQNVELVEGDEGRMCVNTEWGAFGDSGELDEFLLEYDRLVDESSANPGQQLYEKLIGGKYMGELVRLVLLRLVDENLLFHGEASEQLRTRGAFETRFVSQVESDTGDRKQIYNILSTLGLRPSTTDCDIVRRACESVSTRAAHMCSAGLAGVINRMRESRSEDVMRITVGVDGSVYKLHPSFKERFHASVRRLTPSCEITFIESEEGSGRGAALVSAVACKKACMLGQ
The experiment in a line: Glucokinase in vitro assay (G6PDH-coupled NADH generation, OD340). The assay is classed as biochemical. The settings on record: 5 mM D-glucose, 30° C., pH 7.1, 10% DMSO. An outline of the steps: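 Activation readout is SC1.5, the activator concentration raising GK rate (OD340/min) 50% above 10% DMSO controls. The coupled reaction used GST-GK1 from E. coli, 5 mM glucose, 1 mM ATP, 1.8 mM NAD and 25 mM Hepes pH 7.1 at 30° C. Enzyme was added after a 10 min compound pre-incubation.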

The next assay has as its system Lean C57BL/6J mice. The assay can be described thus: Glucokinase activator in vivo screen, blood glucose in lean mice. The note with it: Mus musculus, vs control at 4 hours post 50 mg/kg oral dose, two hour fast, read-out: % glucose lowering @ 4 H. As for the experimental part: Glucokinase Activator in vivo Screen Protocol in Lean and Diet Induced Obese Mice: Lean or Diet-induced Obese (DIO) C57BL/6J mice were orally dosed via gavage with Glucokinase (GK) activator following a two hour fasting period. Blood glucose determinations were made at various (e.g. 0, 1, 2, 4 and 8 hours post-oral gavage) times during the study.
C57Bl/6J mice were obtained from Jackson Laboratory (Bar Harbor, Me.) and were maintained in a light-dark cycle with lights on from 0600-1800 hr. For studies in lean mice, the mice were received at age ten weeks and given ad libitum access to control diet (LabDiet 5001 chow, PMI Nutrition, Brentwood, Mo.), and were at least age 11 weeks at the time of study. For studies in the DIO model, the mice were received at age five weeks and given ad libitum access to Bio-Serv F3282 High Fat Diet (Frenchtown, N.J.), and were at least age 16 weeks at the time of study. The experiments were conducted during the light phase of the light-dark cycle. Mice (n=6) are weighed and fasted for a two hour period prior to oral treatment. GK activators are formulated in Gelucire vehicle (Ethanol:Gelucire44/14:PEG400q.s. 4:66:30 v/w/v. For studies in lean mice, the mice were dosed orally with 5.0 μL per gram of body weight (i.e. 5 ml/kg×10.0 mg/ml formulation to equal a 50 mg/kg dose). For studies in DIO mice, the mice were dosed orally with 5.0 μL per gram of body weight (i.e. 5.0 ml/kg×5 mg/ml formulation to equal a 25 mg/kg dose). Immediately prior to dosing, a pre-dose (time zero) blood glucose reading was acquired by snipping off a small portion of the animal's tail and collecting 15 μL blood into a heparinized capillary tube for analysis. Following GK activator administration, additional blood glucose readings were taken at various time points post dose from the same tail wound. Results were interpreted by comparing the mean blood glucose values of vehicle treated mice with GK activator treated mice over the study period.
The Table below provides data for % glucose lowering of a representative number of compounds of the present invention vs control at 4 hours post 50 mg/kg dose in lean C57BL/6J mice: […]

Consider `O=C(Nc1nccs1)C(CC1CCCC1)n1ncc(Oc2ccccc2)cc1=O` (stereo not shown) [Example 2, 3-Cyclopentyl-2-(6-oxo-4-phenoxy-6H-pyridazin-1-yl)-N-thiazol-2-yl-propionamide], for which the “SC1.5 average (concentration of activator that produced a 50% increase in the activity of GK)” value in assay [1] was determined as 0.206 µM. In addition, in the assay with Lean C57BL/6J mice, the change in vivo at 50 mg/kg is -41.9%.
With `CC(C)(O)Cn1ccc(NC(=O)C(CC2CCCC2)n2ncc(Oc3c(F)cccc3F)cc2=O)n1` (stereo not shown) [Example 36, 3-Cyclopentyl-2-[4-(2,6-difluoro-phenoxy)-6-oxo-6H-pyridazin-1-yl]-N-[1-(2-hydroxy-2-methyl-propyl)-1H-pyrazol-3-yl]-propionamide], the “SC1.5 average (concentration of activator that produced a 50% increase in the activity of GK)” value in assay [1] is 0.063 µM. Besides, in the assay with Lean C57BL/6J mice, the change in vivo at 50 mg/kg is -60.9%.
On the same counts, the results for `CC(C)(O)Cn1ccc(NC(=O)C(CC2CCCC2)n2ncc(Oc3ccccc3C#N)cc2=O)n1` (stereo not shown) [Example 29, 2-[4-(2-Cyano-phenoxy)-6-oxo-6H-pyridazin-1-yl]-3-cyclopentyl-N-[1-(2-hydroxy-2-methyl-propyl)-1H-pyrazol-3-yl]-propionamide] are 0.227 µM and -27.8%.
Regarding `CC(C)(O)Cn1ccc(NC(=O)C(CC2CCCC2)n2ncc(Oc3cccc4c3CCCC4)cc2=O)n1` (stereo not shown) [Example 17, 3-Cyclopentyl-N-[1-(2-hydroxy-2-methyl-propyl)-1H-pyrazol-3-yl]-2-[6-oxo-4-(5,6,7,8-tetrahydro-naphthalen-1-yloxy)-6H-pyridazin-1-yl]-propionamide], the “SC1.5 average (concentration of activator that produced a 50% increase in the activity of GK)” value in assay [1] was 0.113 µM. For the same compound, in the assay with Lean C57BL/6J mice, the change in vivo at 50 mg/kg is -35.2%.
As to `COc1ccccc1Oc1cnn(C(CC2CCCC2)C(=O)Nc2ccn(CC(C)(C)O)n2)c(=O)c1` (stereo not shown) [Example 12, 3-Cyclopentyl-N-[1-(2-hydroxy-2-methyl-propyl)-1H-pyrazol-3-yl]-2-[4-(2-methoxy-phenoxy)-6-oxo-6H-pyridazin-1-yl]-propionamide], in assay [1], the “SC1.5 average (concentration of activator that produced a 50% increase in the activity of GK)” value turned out to be 0.117 µM. Further, the change in vivo at 50 mg/kg in the assay with Lean C57BL/6J mice is -49.3%.
Take `Cn1ccc(NC(=O)C(CC2CCCC2)n2ncc(Oc3ccccc3C(F)(F)F)cc2=O)n1` (stereo not shown) [Example 14, 3-Cyclopentyl-N-(1-methyl-1H-pyrazol-3-yl)-2-[6-oxo-4-(2-trifluoromethyl-phenoxy)-6H-pyridazin-1-yl]-propionamide]: the “SC1.5 average (concentration of activator that produced a 50% increase in the activity of GK)” value in assay [1] stood at 0.256 µM. The change in vivo at 50 mg/kg in the assay with Lean C57BL/6J mice is -46.7%.
On the same counts, the results for `Cn1nc(NC(=O)C(CC2CCCC2)n2ncc(Oc3ccccc3C(F)(F)F)cc2=O)cc1Cl` (stereo not shown) [Example 13, N-(5-Chloro-1-methyl-1H-pyrazol-3-yl)-3-cyclopentyl-2-[6-oxo-4-(2-trifluoromethyl-phenoxy)-6H-pyridazin-1-yl]-propionamide] are 0.179 µM and -45.8%.
On the same counts, the results for `CC(C)(O)Cn1ccc(NC(=O)C(CC2CCCC2)n2ncc(Oc3ccccc3F)cc2=O)n1` (stereo not shown) [Example 19, 3-Cyclopentyl-2-[4-(2-fluoro-phenoxy)-6-oxo-6H-pyridazin-1-yl]-N-[1-(2-hydroxy-2-methyl-propyl)-1H-pyrazol-3-yl]-propionamide] are 0.14 µM and -49.2%.
